Read-outs that look alike come from different tables or passages of the source.
Columns and labels:
[1] = system: upcyte hepatocytes 653-03 2D6; assay: Tam metabolism in upcyte hepatocytes 653-03 2D6, metabolites in culture medium; type: in vitro ADME, human; conditions: cells incubated with 1 µM Tam up to 144 h; for concentration in the culture medium: 653-03 2D6
Procedure: (§1) The medium was replaced every 2–3 days. […].
(§2) The culture medium was collected after 24, 48, 72, 96 and 144 h followed by metabolite measurements using HPLC-ESI-MS/MS.
(§3) Protein was precipitated by the addition of ACN containing 1% of acetic acid and the corresponding deuterated internal standards to the same volume of the sample followed by centrifugation at 20.000 g for 15 min at RT. […] Analytes were separated on a Zorbax Eclipse Plus C18 column (1.8 µm, 100 × 2.1 mm, Agilent technologies) and detected on a 6460 triple quadrupole mass spectrometer (Agilent technologies) in positive ESI MRM mode. Glucuronides of estrogen-like metabolites were detected separately via MS/MS-measurements in negative ESI MRM mode.
(§4) […]. […] […].

estrogen receptor = system: estrogen receptor; parameters: method as in Johnson et al. [1989]; Murphy et al. [1990]; conditions: in vitro, estrogen-dependent breast cancer cell lines; ref Johnson et al. [1989]; Murphy et al. [1990]; cited from earlier work
[2] = system: upcyte hepatocytes 653-03 and 653-03 2D6; assay: Tam metabolism in upcyte hepatocytes, cell strain not distinguished; type: in vitro ADME, human; conditions: cells incubated with 1 µM Tam; highest concentration, decreased over time
Procedure: as §1, §2, §3, §4

[3] = Formation kinetics of Tam-Bis, (Z)- and (E)-Met E in HLM with increasing substrate concentrations; type: in vitro ADME, human; conditions: substrate 1 to 50 µM, Michaelis-Menten
Procedure: The reaction was started by adding a NADPH regenerating system (5 mM MgCl2, 5 mM glucose-6-phosphate, 0.5 mM NADP^+ and 10 U glucose-6-phosphate-dehydrogenase in 100 mM sodium phosphate buffer pH 7.4) to the samples and immediately put in a 37 °C water bath for 30 min. The reaction was stopped with the same volume of acetonitrile (ACN) containing 1% of acetic acid together with the corresponding deuterated internal standards. Regarding incubations with Supersomes™ containing UGTs, 5 µg of protein was incubated with 250 mM MgCl2 and 2.5 ng of alamethicin for 30 min on ice, followed by 10 min at 37 °C in a water bath. Subsequently, the Supersomes™ were incubated with 10 µM of substrates (Tam-Bis, (E)- and (Z)-Met E) and the glucuronidation was started by addition of 10 mM of uridine 5′-diphospho-glucuronic acid to the samples in a water bath at 37 °C for 30 min. The reaction was stopped as described above. Metabolites were analyzed by HPLC-ESI-MS/MS.
For the assessment of formation kinetics of Tam-Bis, (E)- and (Z)-Metabolite E, HLM were incubated with increasing substrate concentrations ranging from 1 to 50 µM as described above. As control for each concentration a sample without NADPH-regenerating system was prepared. […]

CYP1A1 gene expression = CYP1A1 gene expression in upcyte hepatocytes (Fluidigm RT-PCR); type: cell-based, human; conditions: 5 µM, 72 h, both cell strains
Description: Differences between induced and control samples were compared using Welch’s t-test (GraphPad Prism, version 5.04), when the fold-change was considered biologically relevant (1.5-fold increase or decrease in fold-changes) and corrected for multiple testing according to Bonferroni. […] An unpaired t-test assuming unequal variances was used for testing of differences in the expression patterns, when the fold-change was considered biologically relevant (1.5-fold increase or decrease in fold-changes) and corrected using Bonferroni adjustments.

CYP3A4 = CYP3A4 activity in upcyte hepatocytes after treatment (probe substrate cocktail); conditions: 72 h
Procedure: (§5) Cells were cultivated in hepatocyte culture medium at 37 °C and 5 °% CO2 in a humidified incubator. Before starting experiments, cells were cultivated in hepatocyte culture medium containing 0.5% (v/v) DMSO (Preculture medium) for 5 days (density of 0.8 × 10^4 cells/cm^2) and were subcultivated in high-performance medium containing 0.1% (v/v) DMSO (Metabolism conditioning medium) for 3–5 days (density of 1.6 × 10^5 cells/cm^2, confluence). The medium was replaced every 2–3 days.
(§6) In HLM and supersome™ incubations the formation rate is given as nmol µg^−1 min^−1 and fmol pmol^−1 min^−1, respectively, and was calculated as the mean ± SD. […] The intrinsic Clearance (Clint) was given as Vmax/Km ratio. […] Activity of CYP enzymes in induction assays is given as the fold-change (mean ± SD) compared to the corresponding DMSO-treated control. […] Gene expression patterns of treated cells are given as fold-change compared to the corresponding DMSO-treated control samples, as described above. […] In induction and inhibition experiments corresponding EC50 and IC50 values were calculated by nonlinear regression. In all experiments a level of probability (p) ≤ 0.05 for statistical testing was considered significant.
(§7) As control 0.05 % DMSO was used. The basal CYP activity and induction of CYP activity compared to the DMSO control were measured via HPLC-ESI-MS/MS.

CYP2B6 = CYP2B6 activity in upcyte hepatocytes after treatment (probe substrate cocktail); conditions: read-out: EC50 of induction of CYP2B6 activity; upcyte hepatocytes, 72 h, 50 pM to 5 µM
Procedure: as §5, §6, §7

CYP2C9 [4] = biological target: T1, CYP2C9 (Homo sapiens, UniProt P11712); assay: CYP2C9 activity in upcyte hepatocytes after treatment (probe substrate cocktail); type: cell-based; parameters: host or cells: upcyte hepatocytes 653-03 and 653-03 #138 (653-03 2D6); conditions: human; for inhibition at 72 h, 5 µM: probe tolbutamide 100 µM
Procedure: as §5, §6, §7

CYP2C8 [5] = biological target: T2, CYP2C8 (Homo sapiens, UniProt P10632); assay: CYP2C8 activity in upcyte hepatocytes after treatment (probe substrate cocktail); type: cell-based; parameters: host or cells: upcyte hepatocytes 653-03 and 653-03 #138 (653-03 2D6); conditions: for inhibition at 72 h, 5 µM: human, upcyte hepatocytes 653-03 and 653-03 2D6, probe amodiaquine 5 µM, both cell lines
T2 sequence (P10632 1-490): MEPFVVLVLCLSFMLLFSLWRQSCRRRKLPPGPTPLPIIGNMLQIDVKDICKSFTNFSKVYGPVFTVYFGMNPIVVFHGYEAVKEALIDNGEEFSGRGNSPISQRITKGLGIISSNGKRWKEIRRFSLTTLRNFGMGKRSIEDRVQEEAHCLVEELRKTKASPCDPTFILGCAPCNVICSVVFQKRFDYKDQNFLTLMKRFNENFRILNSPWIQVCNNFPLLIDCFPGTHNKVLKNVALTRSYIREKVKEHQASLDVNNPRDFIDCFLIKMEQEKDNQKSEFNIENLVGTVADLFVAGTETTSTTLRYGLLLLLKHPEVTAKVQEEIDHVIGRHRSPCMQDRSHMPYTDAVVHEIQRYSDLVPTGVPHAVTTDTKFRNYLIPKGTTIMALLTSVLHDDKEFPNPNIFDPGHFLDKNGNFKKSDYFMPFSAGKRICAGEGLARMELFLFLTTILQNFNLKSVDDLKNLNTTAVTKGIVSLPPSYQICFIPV
Procedure: as §5, §6, §7

CYP2C19 [6] = biological target: T3, CYP2C19 (Homo sapiens, UniProt P33261); assay: CYP2C19 activity in upcyte hepatocytes after treatment (probe substrate cocktail); type: cell-based; parameters: host or cells: upcyte hepatocytes 653-03 and 653-03 #138 (653-03 2D6)
Procedure: as §5, §6, §7

CYP1A2 = CYP1A2 activity in upcyte hepatocytes after treatment (probe substrate cocktail); conditions: read-out: EC50 of induction of CYP1A2 activity, 72 h, 50 pM to 5 µM
Procedure: as §5, §6, §7

[7] = system: upcyte hepatocytes 653-03; assay: Tam metabolism in upcyte hepatocytes 653-03 (parental), metabolites in culture medium; type: in vitro ADME, human; conditions: cells incubated with 1 µM Tam up to 144 h, parental 653-03
Procedure: as §1, §2, §3, §4

CYP2C8 [8] = biological target: T2, CYP2C8; assay: Inhibition of CYP2C8 activity in HLM; type: in vitro ADME; conditions: 200 nM to 10 µM, 10 min pre-incubation
CYP2C9 [9] = biological target: T1, CYP2C9; assay: Inhibition of CYP2C9 activity in HLM; type: in vitro ADME; conditions: 200 nM to 10 µM, 10 min pre-incubation
CYP2C19 [10] = biological target: T3, CYP2C19; assay: Inhibition of CYP2C19 activity in HLM; type: in vitro ADME; conditions: 200 nM to 10 µM, 10 min pre-incubation
[11] = system: CYP1A2, 2C19, 2C9, 2B6, 3A4 and 2C8; assay: CYP activity in upcyte hepatocytes after treatment, all tested CYP isoenzymes together; type: cell-based, human
Procedure: as §5, §6

ABCB1 gene expression = ABCB1 gene expression in upcyte hepatocytes (Fluidigm RT-PCR); type: cell-based, human; conditions: rifampicin 30 µM, 72 h
Description: Total RNA was isolated from cells using the Direct-zol™ RNA MiniPrep kit (Zymo Research Corp., Irvine, California). cDNA was synthesized using TaqMan Reverse Transcription Reagents (Life technologies, Applera GmbH, Darmstadt, Germany) and the expression of 25 genes representative of phase I and phase II drug metabolism and transport was quantified by Fluidigm’s BioMark HD high-throughput quantitative chip platform (Fluidigm Corporation, San Francisco, USA). For relative gene expression analysis, the delta-delta-Ct (ΔΔCt) method was used: the Ct values of the target mRNA were first normalized to those of the endogenous control glyceraldehyde-3-phosphate dehydrogenase (GAPDH) followed by dividing values of experimental samples by their corresponding DMSO-treated controls to calculate the x-fold changes of mRNA expression.
In HLM and supersome™ incubations the formation rate is given as nmol µg^−1 min^−1 and fmol pmol^−1 min^−1, respectively, and was calculated as the mean ± SD. […] The intrinsic Clearance (Clint) was given as Vmax/Km ratio. […] In induction and inhibition experiments corresponding EC50 and IC50 values were calculated by nonlinear regression. […]
as §7

GSTA2 gene expression = GSTA2 gene expression in upcyte hepatocytes (Fluidigm RT-PCR); type: cell-based, human; conditions: rifampicin 30 µM, 72 h
Description: as §4
[…]. As control 0.05 % DMSO was used.

[12] = read-out: Km, (E)-Met E formation
[13] = read-out: Km, (Z)-Met E formation

T3 sequence (P33261 whole entry): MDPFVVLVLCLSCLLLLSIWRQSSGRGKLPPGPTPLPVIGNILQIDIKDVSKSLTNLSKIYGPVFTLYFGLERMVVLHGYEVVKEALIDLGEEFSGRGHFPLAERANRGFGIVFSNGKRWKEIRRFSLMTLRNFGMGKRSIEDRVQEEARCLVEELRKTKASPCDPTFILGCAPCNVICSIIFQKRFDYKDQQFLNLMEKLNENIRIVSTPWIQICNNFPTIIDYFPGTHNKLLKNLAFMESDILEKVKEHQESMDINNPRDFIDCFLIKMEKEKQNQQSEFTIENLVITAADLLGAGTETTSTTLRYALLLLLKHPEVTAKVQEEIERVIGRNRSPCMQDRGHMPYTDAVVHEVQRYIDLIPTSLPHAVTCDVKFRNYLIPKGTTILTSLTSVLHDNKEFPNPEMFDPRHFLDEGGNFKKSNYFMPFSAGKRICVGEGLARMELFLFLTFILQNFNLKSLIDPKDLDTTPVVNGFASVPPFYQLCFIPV
T1 sequence (P11712 whole entry): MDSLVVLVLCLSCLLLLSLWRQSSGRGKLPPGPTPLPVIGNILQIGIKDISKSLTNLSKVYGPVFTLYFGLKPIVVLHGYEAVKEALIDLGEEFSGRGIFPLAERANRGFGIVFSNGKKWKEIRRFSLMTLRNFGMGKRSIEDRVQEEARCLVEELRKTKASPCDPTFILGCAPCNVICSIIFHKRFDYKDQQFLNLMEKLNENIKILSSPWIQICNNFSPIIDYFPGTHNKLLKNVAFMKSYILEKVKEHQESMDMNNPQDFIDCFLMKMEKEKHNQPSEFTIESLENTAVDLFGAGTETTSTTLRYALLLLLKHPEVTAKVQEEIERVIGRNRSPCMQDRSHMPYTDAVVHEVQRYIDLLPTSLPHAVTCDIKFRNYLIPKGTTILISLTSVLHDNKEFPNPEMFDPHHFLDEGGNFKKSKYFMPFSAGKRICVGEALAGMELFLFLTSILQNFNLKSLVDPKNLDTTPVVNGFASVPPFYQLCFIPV

CC/C(=C(/c1ccc(OCCN(C)C)cc1)c1ccc(O[C@@H]2O[C@H](C(=O)O)[C@@H](O)[C@H](O)[C@H]2O)cc1)c1ccccc1 [4OH-Tam-glucuronide, tamoxifen-4-O-glucuronide]
concentration in the supernatant of 653-03 2D6 cells relative to parental cells [1]: up to 25 times

CCC(=C(c1ccccc1)c1ccc(O)cc1)c1ccccc1 [(Z)-Met E, 4-[1,2-diphenylbut-1-en-1-yl]phenol]
agonism regarding estrogen-regulated mRNA expression (estrogen receptor): full agonists
concentration in the supernatant of the cells [2]: up to 440 pM
V max, Bisphenol formation [3]: 17.2 pmol/mg/min
Km ([3]; read-out: Km, Bisphenol formation): 8.2 µM
CYP1A1 gene expression, induction vs DMSO control (CYP1A1 gene expression): 3.3 fold
induction of CYP3A4 activity compared to DMSO control (CYP3A4; 5 µM, parental and derived cell line): weakly induced
EC50 (CYP3A4; read-out: EC50 of induction of CYP3A4 activity, upcyte hepatocytes, 50 pM to 5 µM): 308 nM
EC50 (CYP2B6): > 5 µM
EC50 at 72 h (CYP2C9 [4]; probe tolbutamide (100 µM), upcyte hepatocytes, 50 pM to 5 µM, read-out: EC50 of induction of CYP2C9 activity): > 5 µM
EC50 (CYP2C8 [5]; upcyte hepatocytes, 72 h, 50 pM to 5 µM, read-out: EC50 of induction of CYP2C8 activity): > 5 µM
EC50 (CYP2C19 [6]; upcyte hepatocytes, 72 h, 50 pM to 5 µM, read-out: EC50 of induction of CYP2C19 activity): > 5 µM
EC50 (CYP1A2): > 5 µM

CC/C(=C(\c1ccccc1)c1ccc(OCCN)cc1)c1ccccc1 [DDM-Tam, N-didesmethyl-tamoxifen]
V max, (E)-Met E formation [3]: 0.70 pmol/mg/min
V max, (Z)-Met E formation [3]: 5.2 pmol/mg/min
Km [3, 12]: 20.7 µM
Km [3, 13]: 55.1 µM

CC/C(=C(\c1ccccc1)c1ccc(OCCNC)cc1)c1ccccc1 [DM-Tam, N-desmethyltamoxifen]
concentration in the culture medium [1]: ≤ 14 nM
V max, (E)-Met E formation [3]: 0.32 pmol/mg/min
V max, (Z)-Met E formation [3]: 6.1 pmol/mg/min
Km [3, 12]: 11.5 µM
Km [3, 13]: 102 µM
concentration in the culture medium [7]: up to 8 nM

CC/C(=C(\c1ccc(O)cc1)c1ccc(OCCNC)cc1)c1ccccc1 [Endox, (Z)-endoxifen]
IC50 (CYP2C8 [8]): 8.1 µM
concentration in the culture medium [1]: up to 11 nM
CYP1A1 gene expression, induction vs DMSO control (CYP1A1 gene expression): up to 2.3 fold
IC50 (CYP2C9 [9]): > 10000 nM
IC50 of CYP2C9 activity (CYP2C9 [9]): weakly inhibited
inhibition at 72 h, 5 µM (CYP2C9 [4]): 63%
inhibition at 72 h, 5 µM (CYP2C8 [5]): ≤ 90%
IC50 at 15 min (CYP2C19 [10]; human, human liver microsomes): > 10 µM

CCC(=C(c1ccccc1)c1ccc(O)cc1)c1ccccc1 [Met E, 4-[1,2-diphenylbut-1-en-1-yl]phenol]
inhibitory effect on the tested CYP enzymes ([11]; 5 µM, 72 h): did not act as CYP inhibitors

CC/C(=C(\c1ccc(O)cc1)c1ccc(OCCN)cc1)c1ccccc1 [Norendox, N-didesmethyl-4-hydroxytamoxifen]
IC50 (CYP2C8 [8]): 2.4 µM
IC50 (CYP2C9 [9]): 210 nM
inhibition at 72 h, 5 µM (CYP2C9 [4]): 93%
inhibition at 72 h, 5 µM (CYP2C8 [5]): 62.5%
IC50 (CYP2C19 [10]): 320 nM
inhibition at 72 h, 5 µM (CYP2C19 [6]; human, probe S-mephenytoin 100 µM, 5 µM): ≤ 70%

CO[C@H]1/C=C/O[C@@]2(C)Oc3c(C)c(O)c4c(O)c(c(/C=N/N5CCN(C)CC5)c(O)c4c3C2=O)NC(=O)/C(C)=C\C=C\[C@H](C)[C@H](O)[C@@H](C)[C@@H](O)[C@@H](C)[C@H](OC(C)=O)[C@@H]1C [Rifa, rifampicin]
ABCB1 gene expression, induction (ABCB1 gene expression): 1.7 fold
GSTA2 gene expression, induction (GSTA2 gene expression): 2.6 fold

CC/C(=C(\c1ccccc1)c1ccc(OCCN(C)C)cc1)c1ccccc1 [Tam, Tamoxifen, reference compound]
V max, (E)-Met E formation [3]: 0.57 pmol/mg/min
V max, (Z)-Met E formation [3]: 9.2 pmol/mg/min
Km [3, 12]: 11.5 µM
Km [3, 13]: 82.3 µM

C[C@]12CC[C@@H]3c4ccc(O)cc4CC[C@H]3[C@@H]1CC[C@@H]2O [estradiol, reference compound]
impact on CYP activities ([11]; 500 nM, 3 days): did not have an impact
